Assay results taken from patent US20260000608A1, “COMPOSITIONS AND METHODS FOR ADMINISTERING ANESTHETICS” (Children's Medical Center Corporation, priority 2018, published 2026).
Values joined by “and” are separate entries in the source; they are usually repeats but may differ in a detail not shown here. Equal values may be shown once.

What was measured:
rat tail [1] = experiment: Rat tail IVRA (Bier block) assessed by tail-flick test; format: in vivo
Procedure: In a typical IVRA procedures, the rats were anesthetized with isoflurane-oxygen. The tail vein was cannulated with a 24-gauge IV catheter, which was placed in the distal third of the tail and filled with heparinized saline (BD, USA). The tail was exsanguinated by wrapping it with a rubber strip. An elastic tourniquet was tightly applied proximal to the rubber strip and then the rubber strip was removed. Next, 0.4 mL of formulation was injected by a microinjector (1 mL) through the IV catheter. After releasing the tourniquet, animals were allowed to recover from the isoflurane anesthesia, then rat tail IVRA was assessed by the tail-flick test. In brief, tail-flick latency (the time from onset of radiant heat to tail-flick response) was measured by a tail-flick analgesia meter (Tail-Flick Unit 37370; Ugo Basile, Comerio, Italy). The intensity of radiant heat (parameter of the analgesia meter) was set at 90%, and cut-off time of radiant heat was set at 18 seconds. The testing area was between the injection site in the distal tail and the tourniquet, in the proximal tail. Baseline tail-flick latency was measured in untreated and saline injected rats. All evaluations were performed by two trained observers blinded to group allocation.

[2] = Bupivacaine concentration in the blood after IVRA and tourniquet release; format: in vivo, rat
Procedure: The following were administered as IVRA: saline, 0.5% free bupivacaine, 0.1% free bupivacaine, micellar composition comprising bupivacaine (0.1% bupivacaine), and liposomal composition comprising bupivacaine (0.1% bupivacaine). After releasing the tourniquet, 200 microliters of blood was collected (through the tail vein opposite from that through formulations were injected) at 15 minutes, 30 minutes, 45 minutes, 90 minutes, 150 minutes, 240 minutes, 480 minutes and 720 minutes. Blood was put in ethylenediaminetetraacetic acid (EDTA) containing blood collection tubes (BD, USA). The samples were stored in ice water for 10-15 minutes and then centrifuged at 3,000 rpm at 4° C. for 5 minutes to obtain plasma. The hemocytes were lysed by ultrasonication (Sonics & Materials, Inc., USA) at 4° C. for 2 minutes and centrifuged at 13,000 rpm at 4° C. for 5 minutes to obtain a supernatant. The supernatant was combined with plasma. Next, 50 microliters of the blood samples were mixed with 10 microliters of sodium hydroxide aqueous solution (1 M) and 0.3 mL ethyl ether in an ice-water bath. The mixtures were vigorously vortexed for 2 minutes and centrifuged at 3,000 rpm for […] at room temperature. The organic phase was transferred to a 4 mL glass vial and evaporated to dryness in a 4° C. ice-water bath under vacuum. The residue was dissolved in 200 microliters of water-methanol (50/50, v/v), and was mechanically agitated for 30 seconds. The samples were transferred to clean polypropylene tubes and centrifuged at 13,000 rpm for 10 minutes. The supernatant was analyzed by HPLC.

[3] = system: rat tails and organs (heart, liver, spleen, lung, kidney); experiment: Histology (H&E) of tails and organs 24 hours after IVRA; format: in vivo; conditions: 0.5% bupivacaine
Procedure: 24 hours after the IVRA procedures, rats that had been administered saline, free bupivacaine (0.5% bupivacaine), micellar composition comprising bupivacaine (0.1% bupivacaine), and liposomal composition comprising bupivacaine (0.1% bupivacaine) were euthanized. Tails and organs (e.g., heart, liver, spleen, lung, and kidney) were harvested and fixed with 10% formalin. The organs were processed by standard procedures to produce hematoxylin and eosin-stained (H&E stained) slides. The tails were decalcified to remove bones before H&B staining procedures. Similar regions were examined in each organ from different groups. Tissues from healthy rats (no treatment) were used as negative controls.

HUVECs = experiment: Cytotoxicity in HUVECs (MTS cell viability); format: cell-based, human; conditions: 0.1 mg/mL free bupivacaine, 24 hours
Procedure: HUVECs were purchased from ATCC. The cell line was authenticated by the suppliers and passaged in the laboratory for fewer than 3 months after resuscitation. HUVECs were maintained in a 37° C./5% CO2 humidified chamber in Endothelial Cell Growth Medium (EBM-2) (Lonza, USA). When the cells grew to 80% confluence, the cell studies were performed. For cytotoxicity studies, HUVECs were seeded in 96-well plates and incubated with various drug formulations (free bupivacaine, micellar composition comprising bupivacaine, and liposomal composition comprising bupivacaine) for 24 hours. Cell viability was evaluated by CellTiter 96® AQueous One Solution Cell Proliferation Assay (MTS) (Promega, USA) according to suppliers' instructions. The absorbance at 490 nm wavelength was detected with a microplate reader ([…]x, BioTek®, USA). Untreated cells served as a control. Results were shown as the average cell viability [(OD treat OD blank)/(OD control OD blank)×100%] of quintuplicate wells. […] The cells were washed three times with 3 mL of fresh medium and the washing medium was added to the collected incubated medium, the final volume of the collected medium was adjusted to 12 mL and the fluorescence intensity of each medium was measured by fluorescence spectrophotometer (Cary Eclipse, Agilent, USA). […]

rat tail blood vessels = experiment: Distribution within the tail: frozen sections, anti-CD34 staining, CLSM; format: in vivo
Procedure: The slices were imaged by CLSM. The intensity of the Rhd fluorescence was calculated from images using ImageJ.

rat tail [4] = experiment: In vivo imaging (IVIS) of Rhd fluorescence retention in rat tail after tourniquet release; conditions: one hour after tourniquet release, n=4
Procedure: For in vivo imaging, the same IVRA procedures were performed, and 0.4 mL of: (i) free Rhd; Rhd-labeled micellar composition comprising bupivacaine; and Rhd-labeled liposomal composition comprising bupivacaine was injected into the tails of rats (n=4) after fastening the tourniquet. Images were taken with an In Vivo Imaging System (PerkinElmer Inc., USA) before releasing the tourniquet, and the signal intensity in those images was considered to be 100%. […] The Rhd signals of each composition were quantified at each time point, and normalized to the intensity before tourniquet release.

[5] = 0.4 mL of 0.5% bupivacaine by IVRA, tourniquet time 5 min
[6] = 0.4 mL of 0.5% bupivacaine by IVRA, tourniquet time 10 min
[7] = 0.4 mL of 0.5% bupivacaine by IVRA, tourniquet time 15 min
[8] = 0.4 mL of 0.5% bupivacaine by IVRA, tourniquet time 20 min
[9] = 0.4 mL of 0.5% bupivacaine by IVRA, tourniquet time 30 min
[10] = bupivacaine concentration 0.1% w/v, 0.4 mL, 15 minute tourniquet
[11] = bupivacaine concentration 0.5% w/v, 0.4 mL, 15 minute tourniquet

CCCCN1CCCCC1C(=O)Nc1c(C)cccc1C (centres unmarked) [Free bupivacaine, bupivacaine]
anesthetic effect (tail-flick) (rat tail [1]; 0.1% bupivacaine, comparable to saline): did not achieve any anesthetic effect | Anesthesia Duration (rat tail [1]; [5]): 0 h | Successful Anesthesia (%) (rat tail [1]; [5]): 0% | Anesthesia Duration (rat tail [1]; [6]): 0.3 ± 0.5 h | Successful Anesthesia (%) (rat tail [1]; [6]): 25% | Anesthesia Duration (rat tail [1]; [7]): 2 h and 2.0 ± 0.6 h | Successful Anesthesia (%) (rat tail [1]; [7]): 100% | animals with anesthesia (rat tail [1]; 0.4 mL of 0.5% bupivacaine by IVRA, tourniquet time 15 minutes): four of four | Anesthesia Duration (rat tail [1]; [8]): 1.9 ± 0.5 h | Successful Anesthesia (%) (rat tail [1]; [8]): 100% | Anesthesia Duration (rat tail [1]; [9]): 2.0 ± 0.5 h | Successful Anesthesia (%) (rat tail [1]; [9]): 100% | Anesthesia Duration (rat tail [1]; [10]): 0 h | Successful Anesthesia (%) (rat tail [1]; [10]): 0% | Anesthesia Duration (rat tail [1]; [11]): 2.0 ± 0.6 h | Successful Anesthesia (%) (rat tail [1]; [11]): 100% | Anesthesia Duration (rat tail [1]; bupivacaine concentration 0.5% w/v, 0.4 mL, 15 minute tourniquet, listed as free bupivacaine): 2.0 ± 0.6 h | mortality ([2]; 0.5% free bupivacaine by IVRA, rats): none died | clinical observation after tourniquet release ([2]; rat, in vivo): dyspnea | time of peak bupivacaine concentration in blood ([2]; rat, in vivo): 45 min | histology of heart, liver, spleen, lung and kidney (H&E) [3]: no histological abnormalities | tail myotoxicity (H&E) [3]: no myotoxicity | cells alive (HUVECs): 22.1+/−2.4%

rhodamine [free Rhd]
Rhd signal in tail sections (fluorescence microscopy) (rat tail blood vessels; 15 minutes after release of the tourniquet): very strong Rhd signals co-localized with blood vessel | Rhd signal in tail sections (fluorescence microscopy) (rat tail blood vessels; four hours after release of the tourniquet): much weaker than at 15 minutes | fluorescence intensity in the rat tail, % of intensity before tourniquet release (rat tail [4]): ~50%
